# Test system: MPP1
# Test: Immunoblot of MPP1 content in PBMN cells of elderly human research participants
# Type: in vivo
# Conditions: 28 days, daily dose of 60 mg
# Description: For protein separation by SDS-PAGE (Laemmli system), the protein pellet can be dissolved in SDS-PAGE sample buffer supplemented with SDS. As an alternative, sample buffer for native gel electrophoresis can be added. According to the original protocol, the SDS-PAGE Laemmli sample buffer contains 2% SDS, 0.1 M DTT (or 5% mercaptoethanol). To improve disaggregation of aggregated proteins, the buffer can be supplemented without or with urea ranging from about 0 M-8 M, preferably about 6 M urea and incubated for about 10 min to 24 h, preferably about 90 min at room temperature. Proteins can be stored frozen (about […]) at a concentration ranging from about 0.01-100 mg/ml, preferably about 0.5 mg-1 mg/ml, for further use. It may be further desirable to dilute the solubilisate, for example, diluting the supernatant solubilisate by 1:1-1:20, preferably 1:5, in a suitable buffer as described above (preferably supplemented with protease inhibitors). Before immunoblot detection of proteins, proteins are separated. For separation of proteins, one- or two-dimensional SDS-PAGE can be applied. […]
smiles,measurement,value
"O=C(C1=C(O)C(c2ccc(F)cc2)N(c2ccc3c(c2)OCO3)C1=O)C1CC1 (stereo not shown) [Compound-1F, 1-(1,3-Benzodioxol-5-yl)-4-(cyclopropanecarbonyl)-2-(4-fluorophenyl)-3-hydroxy-2H-pyrrol-5-one]",senescence marker protein MPP1 in PBMN cells vs before treatment,significant decrease

# Reference: patent US20210015793A1, “COMPOUNDS FOR TREATING CNS- AND NEURODEGENERATIVE DISEASES” (ETH ZURICH, priority 2018, published 2021)
